How the values were obtained:
IL-2 = test: Inhibition of IL-2 in LPS-stimulated primary PBMCs (MSD U-plex); format: cell-based; conditions: human PBMCs, LPS (500 ng/mL), Compound 10 (150 nM), 24 hrs; MSD platform; FIG. 15
Procedure: (§1) Primary peripheral blood mononuclear cells (PBMCs) freshly isolated from healthy human donors were obtained from AllCells Inc. and utilized for assays immediately. Compound 10 was dissolved in DMSO as a 10 mM stock and used to prepare compound source plates. A serial dilution (8-point dose-response) and compound transfer was performed using the ECHO 550 (Labcyte, Sunnyvale, Calif.) into 96-well clear bottom assay plates (Greiner Bio-One) with appropriate DMSO backfill for a final DMSO concentration of 0.05%. PBMCs were plated at 2×10e^5 cells/well in Roswell Park Memorial Institute (RPMI) 1640 Medium (Catalog #21870-100, Buffalo, N.Y.) with 1% L-glutamine, 1% HEPES, 1% Sodium Pyruvate, 2% Sodium Bicarbonate supplemented with 100 units/mL penicillin, 50 μg/mL streptomycin and 1% fetal bovine serum (Catalog #16140089, Life Technologies, Carlsbad, Calif.). […]
(§2) Supernatants were diluted appropriately for ELISA. […] Following several washes to remove unbound avidin-HRP, the TMB substrate was added and the plates were read on the Cytation 3 plate reader (Biotek Inc., Winooski, Vt.) at an absorbance of 450 nm with correction at 570 nm. […] Inhibition profile and EC50 was calculated using Prism 5 (GraphPad Software Inc, La Jolla, Calif., USA). […] Levels of cytokines were calculated using software form Meso Scale Discovery.

IL-1β = test: Inhibition of IL-1β in LPS-stimulated primary PBMCs (MSD U-plex); format: cell-based; conditions: human PBMCs, LPS (500 ng/mL), Compound 10 (150 nM), 24 hrs; MSD platform; FIG. 15
Procedure: as §1, §2

IL-5 = test: Inhibition of IL-5 in LPS-stimulated primary PBMCs (MSD U-plex); format: cell-based; conditions: human PBMCs, LPS (500 ng/mL), Compound 10 (150 nM), 24 hrs; MSD platform; FIG. 15
Procedure: as §1, §2

[1] = Quantitative whole body autoradiography and excretion of radiolabeled Compound 10 in rats; format: in vivo; conditions: SD rats, two IA injections at 1 μg/knee
Source text: In terms of excretion, 95% of the excreted radioactivity was recovered in the feces and only 5% in the urine. QWBA radiographic images and quantitation of radioactivity in the feces with much less recovery in the urine, support the hypothesis that [^3H]-Compound 10 is being eliminated by drainage in the lumbar and inguinal lymph ducts and lymph nodes, and through the small and large intestines and cecum in a mechanism consistent with slow passive fecal excretion, a major route of elimination of slowly metabolized xenobiotics. During this process, the radiolabeled [3H]-Compound 10 was degraded with only ˜1.5% of parent detected in the fecal matter.

[2] = Plasma concentrations after a single intra-articular injection of radiolabeled Compound 10 in rats; format: in vivo, Sprague Dawley (SD) rats; conditions: SD rats, single IA injection 1 μg/knee
Procedure: Plasma concentration and distribution of Compound 10 following a single IA injection in Sprague Dawley (SD) rats were investigated in radiolabeled and mass balance studies with a tritium-labeled (^3H) Compound 10. [^3H]-Compound 10 was formulated as a suspension in 0.5% carboxymethylcellulose/0.05% polysorbate 80 for intra-articular (IA) injection and diluted with unlabeled Compound 10 to the appropriate concentration and injected in the rat knee joint at a dose level equivalent to 1 μg/knee.

Interleukin 6 (IL-6) = test: Inhibition of IL-6 secretion in IL-1β-stimulated synovial fibroblasts (SW982), ELISA; format: cell-based; conditions: human synovial fibroblasts stimulated with IL-1β, treated 24 hrs, FIG. 14A
Procedure: Synovial fibroblasts (SW982 cells; ATCC) were cultured in Leibovitz's L-15 Medium (ATCC) with 10% FBS at 37° C. and 0% CO2. 24 hours before the start of the assay, media was changed to Leibovitz's L-15 Medium with […]. Compound 10 was dissolved in DMSO as a 10 mM stock and used to prepare compound source plates. A serial dilution (8-point dose-response) and compound transfer was performed using the ECHO 550 (Labcyte, Sunnyvale, Calif.) into 96-well clear bottom assay plates (Greiner Bio-One) with appropriate DMSO backfill for a final DMSO concentration of 0.05%. […] Plates were spun in a centrifuge for 1 minute at 10,000 rpm and supernatants were collected for ELISA.
Supernatants were diluted 1:1 for the TNFα assay and 1:4 for the IL6 assay using the assay medium. ELISA was performed using Human TNF-α ELISA MAX™ Deluxe (Catalog #430204, Biolegend, San Diego, Calif.) and Human IL-6 ELISA MAX™ Deluxe (Catalog #430504, Biolegend, San Diego, Calif.) kits. […] Following several washes to remove unbound avidin-HRP, the TMB substrate was added and the plates were read on the Cytation 3 plate reader (Biotek Inc., Winooski, Vt.) at an absorbance of 450 nm with correction at 570 nm. […] Inhibition profile and EC50 was calculated using Prism 5 (GraphPad Software Inc, La Jolla, Calif., USA).

## CC(C)CC(=O)Nc1cncc(-c2ccc3[nH]nc(-c4nc5c(-c6cccc(F)c6)cncc5[nH]4)c3c2)c1 [Compound 10]
IL-2
  Inhibition of IL-2: Inhibition
IL-1β
  Inhibition of IL-1β: Inhibition
IL-5
  Inhibition of IL-5: Inhibition
[1]
  excreted radioactivity recovered in the feces: 95%
  excreted radioactivity recovered in the urine: 5%
  parent detected in the fecal matter: ~1.5%
[1]; QWBA
  total radioactivity recovered from the whole carcass, feces, urine and cage wash: ~75%
[1]; at 1 hour and up to 168 hours post-IA injection
  radioactivity in major organs: negligible/undetectable
[2]; females
  Mean radioactivity exposure AUC(0-inf): 1.818 ng-equiv.h/g
  Mean radioactivity exposure AUC(0-t): 1.040 ng-equiv.h/g
  Tmax: 4 h
  apparent terminal elimination half-life in the blood: 124 h
[2]; males
  Mean radioactivity exposure AUC(0-inf.): 1.548 ng-equiv.h/g
  Mean radioactivity exposure AUC(0-t): 0.832 ng-equiv.h/g
  Tmax: 1 h
  apparent terminal elimination half-life in the blood: 57 h
Interleukin 6 (IL-6)
  inhibition of IL-6 secretion: inhibition

From patent US11667632B2, “2-(1H-indazol-3-yl)-3H-imidazo[4,5-C]pyridines and their anti-inflammatory uses thereof” (BioSplice Therapeutics, Inc., priority 2015, dated 2023)
